{
  "source": "patent US20230026277A1",
  "about": "“COMPOSITION FOR PREVENTION, ALLEVIATION, OR TREATMENT OF RESPIRATORY DISEASE” (MICROX CO., LTD., priority 2019, published 2023)",
  "tested_on": "MKP-1 protein",
  "experiment": "Western blot of MKP-1 protein in lung tissue of asthma-induced mice",
  "format": "in vivo",
  "protocol": "Also, on days 21 and 28 from the experimental starting date, the mice were put into a plastic box (Plexiglas (Rohm & Haas, Philadelphia, Pa.) exposure chamber; 24.5 cm×40.5 cm×15.0 cm), and 1.5% ovalbumin was evaporated using an ultrasonic nebulizer (NE-U12; output 0.8 mL/min; Omron, Japan), and injected into the box for 30 minutes so that the mice inhaled the evaporated ovalbumin (secondary challenge).\nA tissue was extracted from each of the mice manufactured in Experimental Method 1, and finely ground to a cell level. Thereafter, the cells were lysed in a cell lysis buffer containing a protease inhibitor to obtain a cell lysate. The cell lysate was centrifuged to obtain protein. Then, an equivalent amount of the proteins obtained from the cells were loaded on an SDS-PAGE gel and electrophoresed. The proteins present in the electrophoresed gel were transferred to a PVDF membrane. […] The PVDF membrane was washed three times with a TBS-T buffer, and visualized and quantified using an ECL Western blotting detection reagent. […]\nSmall interfering RNA (siRNA; hereinafter referred to as “MKP-1 siRNA”) against RNA encoding an MKP-1 protein, and control siRNA strands were purchased from SANTA CRUZ (USA). […] An effect of the MKP-1 siRNA interference was determined by measuring an expression level of the MKP-1 protein in the lung tissue through Western blot analysis. […]",
  "data": [
    {"compound": "CC(=O)NC(=O)CC[C@H](NC(C)=O)C(=O)O", "note": "[Preparation Example 3, 2,5-diacetamido-5-oxopentanoic acid]", "values": [
      {"measurement": "level of the MKP-1 protein", "setting": "lung tissue, oral daily 200, 500 or 1,000 μg/kg/day, 10 and 30 minutes after secondary challenge, FIG. 7", "result": "more increased depending on the concentration"},
      {"measurement": "level of the MKP-1 protein", "setting": "with MKP-1 siRNA treatment, same conditions as [5-1], FIG. 8", "result": "did not increase"}
    ]}
  ]
}
